Experimental data reported in paper PMC10882719 (Frontiers in Neuroscience, 2024).
Where two headings read alike, the source gives them in different places.

Key:
Type in all cases: cell-based
168 GPCRs [1] = biological target: T1, 168 GPCRs (Homo sapiens, UniProt P41146); conditions: OPRL1
T1 construct: host or cells: PathHunter cell lines

168 GPCRs [2] = biological target: T2, 168 GPCRs (Homo sapiens, UniProt Q9HB89); conditions: NMU1R
T2 construct: host or cells: PathHunter cell lines
T2 sequence (Q9HB89 1-426): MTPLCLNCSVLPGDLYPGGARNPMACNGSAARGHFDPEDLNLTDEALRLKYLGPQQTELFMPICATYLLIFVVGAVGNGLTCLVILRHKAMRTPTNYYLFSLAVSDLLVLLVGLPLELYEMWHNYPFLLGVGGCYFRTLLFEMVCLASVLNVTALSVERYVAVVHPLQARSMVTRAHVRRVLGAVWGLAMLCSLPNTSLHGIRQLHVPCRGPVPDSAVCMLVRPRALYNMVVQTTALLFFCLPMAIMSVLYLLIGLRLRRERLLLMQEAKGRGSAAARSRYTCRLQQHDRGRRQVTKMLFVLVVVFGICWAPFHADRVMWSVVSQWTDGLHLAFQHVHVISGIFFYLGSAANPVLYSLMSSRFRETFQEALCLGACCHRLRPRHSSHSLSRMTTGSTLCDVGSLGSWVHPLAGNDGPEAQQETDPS

168 GPCRs [3] = biological target: T3, 168 GPCRs (Homo sapiens, UniProt P29371); conditions: TACR3
T3 construct: host or cells: PathHunter cell lines
T3 sequence (P29371 1-465): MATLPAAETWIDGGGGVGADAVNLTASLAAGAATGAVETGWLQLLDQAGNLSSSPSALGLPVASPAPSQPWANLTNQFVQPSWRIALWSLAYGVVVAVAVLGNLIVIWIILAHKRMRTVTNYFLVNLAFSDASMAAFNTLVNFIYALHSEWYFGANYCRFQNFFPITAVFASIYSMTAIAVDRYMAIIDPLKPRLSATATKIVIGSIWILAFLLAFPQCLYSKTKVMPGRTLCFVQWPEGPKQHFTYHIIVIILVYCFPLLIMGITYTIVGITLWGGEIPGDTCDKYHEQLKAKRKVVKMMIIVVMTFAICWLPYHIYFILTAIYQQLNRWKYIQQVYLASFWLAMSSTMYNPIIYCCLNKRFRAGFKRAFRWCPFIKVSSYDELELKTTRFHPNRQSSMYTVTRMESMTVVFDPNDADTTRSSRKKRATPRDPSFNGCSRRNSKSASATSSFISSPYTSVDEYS

168 GPCRs [4] = biological target: T4, 168 GPCRs (Homo sapiens, UniProt P49190); conditions: PTHR2
T4 construct: host or cells: PathHunter cell lines
T4 sequence (P49190 25-550): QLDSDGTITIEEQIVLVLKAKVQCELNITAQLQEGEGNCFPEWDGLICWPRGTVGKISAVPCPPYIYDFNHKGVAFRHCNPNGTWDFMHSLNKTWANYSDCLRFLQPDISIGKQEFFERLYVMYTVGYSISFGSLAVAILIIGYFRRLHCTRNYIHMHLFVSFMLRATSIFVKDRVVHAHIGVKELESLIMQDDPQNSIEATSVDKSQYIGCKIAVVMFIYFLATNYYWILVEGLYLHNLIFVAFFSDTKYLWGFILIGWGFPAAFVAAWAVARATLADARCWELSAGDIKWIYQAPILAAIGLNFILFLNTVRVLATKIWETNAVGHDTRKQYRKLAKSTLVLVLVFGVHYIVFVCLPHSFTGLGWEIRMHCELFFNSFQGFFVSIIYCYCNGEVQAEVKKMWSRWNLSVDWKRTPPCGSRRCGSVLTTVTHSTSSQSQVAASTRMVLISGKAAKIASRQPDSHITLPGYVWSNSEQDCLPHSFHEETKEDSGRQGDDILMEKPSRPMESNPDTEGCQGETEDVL

168 GPCRs [5] = biological target: T5, 168 GPCRs (Homo sapiens, UniProt Q8NFJ6); conditions: PROKR2
T5 construct: host or cells: PathHunter cell lines
T5 sequence (Q8NFJ6 whole entry): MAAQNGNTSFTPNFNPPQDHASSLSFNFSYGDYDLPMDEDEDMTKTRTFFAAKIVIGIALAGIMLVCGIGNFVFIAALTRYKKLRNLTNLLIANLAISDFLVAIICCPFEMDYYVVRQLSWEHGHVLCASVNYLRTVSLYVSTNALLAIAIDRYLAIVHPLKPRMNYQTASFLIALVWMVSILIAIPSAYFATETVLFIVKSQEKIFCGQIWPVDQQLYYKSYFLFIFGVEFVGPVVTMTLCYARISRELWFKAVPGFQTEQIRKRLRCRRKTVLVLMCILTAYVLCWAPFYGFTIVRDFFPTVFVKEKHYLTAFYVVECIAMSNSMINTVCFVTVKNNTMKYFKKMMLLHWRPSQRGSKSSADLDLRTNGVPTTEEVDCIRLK

168 GPCRs [6] = biological target: T6, 168 GPCRs (Homo sapiens, UniProt P46091)
T6 construct: host or cells: PathHunter cell lines
T6 sequence (P46091 1-355): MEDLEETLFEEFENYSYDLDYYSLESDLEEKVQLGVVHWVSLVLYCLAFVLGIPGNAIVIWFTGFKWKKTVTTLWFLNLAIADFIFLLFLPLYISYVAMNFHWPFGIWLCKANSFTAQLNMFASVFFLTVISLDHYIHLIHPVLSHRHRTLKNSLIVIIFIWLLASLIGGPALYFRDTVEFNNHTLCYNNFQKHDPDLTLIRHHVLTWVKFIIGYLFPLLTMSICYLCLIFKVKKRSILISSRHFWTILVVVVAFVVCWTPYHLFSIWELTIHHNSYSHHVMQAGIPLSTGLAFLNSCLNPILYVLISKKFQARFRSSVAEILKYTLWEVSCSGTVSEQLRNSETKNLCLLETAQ

168 GPCRs [7] = tested on: 168 GPCRs
168 GPCRs [8] = biological target: T7, 168 GPCRs (Homo sapiens, UniProt Q9H3N8)
T7 construct: host or cells: PathHunter cell lines
T7 sequence (Q9H3N8 whole entry): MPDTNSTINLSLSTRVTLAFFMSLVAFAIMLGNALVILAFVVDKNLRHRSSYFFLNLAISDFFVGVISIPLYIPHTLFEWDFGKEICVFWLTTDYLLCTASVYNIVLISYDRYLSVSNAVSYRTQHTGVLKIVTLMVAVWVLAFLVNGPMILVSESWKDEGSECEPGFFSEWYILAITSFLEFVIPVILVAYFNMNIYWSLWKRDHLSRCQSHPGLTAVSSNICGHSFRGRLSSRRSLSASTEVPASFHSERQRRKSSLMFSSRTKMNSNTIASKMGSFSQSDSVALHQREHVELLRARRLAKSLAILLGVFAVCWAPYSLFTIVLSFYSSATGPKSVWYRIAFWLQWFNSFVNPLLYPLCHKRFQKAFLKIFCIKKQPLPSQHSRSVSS

168 GPCRs [9] = biological target: T8, 168 GPCRs (Homo sapiens, UniProt P21554)
T8 construct: host or cells: PathHunter cell lines
T8 sequence (P21554 whole entry): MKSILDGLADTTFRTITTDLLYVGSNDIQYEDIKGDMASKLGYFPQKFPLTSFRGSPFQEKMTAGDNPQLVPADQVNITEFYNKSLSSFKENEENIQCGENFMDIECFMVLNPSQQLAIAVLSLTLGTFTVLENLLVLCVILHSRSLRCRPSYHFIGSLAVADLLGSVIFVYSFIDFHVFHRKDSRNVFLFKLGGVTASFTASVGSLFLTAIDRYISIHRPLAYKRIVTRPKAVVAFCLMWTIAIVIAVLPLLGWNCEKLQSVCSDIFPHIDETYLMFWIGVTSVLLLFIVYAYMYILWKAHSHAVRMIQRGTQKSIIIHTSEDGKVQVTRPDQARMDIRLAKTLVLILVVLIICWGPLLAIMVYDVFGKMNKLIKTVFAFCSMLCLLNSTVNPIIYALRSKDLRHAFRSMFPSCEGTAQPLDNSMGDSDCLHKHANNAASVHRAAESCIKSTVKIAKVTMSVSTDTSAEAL

168 GPCRs [10] = biological target: T9, 168 GPCRs (Homo sapiens, UniProt P32245); conditions: MC4R
T9 construct: host or cells: PathHunter cell lines
T9 sequence (P32245 whole entry): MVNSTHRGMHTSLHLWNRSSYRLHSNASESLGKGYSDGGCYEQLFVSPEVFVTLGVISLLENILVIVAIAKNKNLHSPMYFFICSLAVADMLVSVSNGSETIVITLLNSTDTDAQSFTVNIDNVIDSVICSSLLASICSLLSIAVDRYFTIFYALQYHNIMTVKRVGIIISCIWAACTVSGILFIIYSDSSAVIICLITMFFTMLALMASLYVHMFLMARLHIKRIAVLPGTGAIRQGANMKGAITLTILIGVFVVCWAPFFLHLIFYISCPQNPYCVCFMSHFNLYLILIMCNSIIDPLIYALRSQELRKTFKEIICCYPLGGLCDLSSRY

T1 sequence (P41146 whole entry): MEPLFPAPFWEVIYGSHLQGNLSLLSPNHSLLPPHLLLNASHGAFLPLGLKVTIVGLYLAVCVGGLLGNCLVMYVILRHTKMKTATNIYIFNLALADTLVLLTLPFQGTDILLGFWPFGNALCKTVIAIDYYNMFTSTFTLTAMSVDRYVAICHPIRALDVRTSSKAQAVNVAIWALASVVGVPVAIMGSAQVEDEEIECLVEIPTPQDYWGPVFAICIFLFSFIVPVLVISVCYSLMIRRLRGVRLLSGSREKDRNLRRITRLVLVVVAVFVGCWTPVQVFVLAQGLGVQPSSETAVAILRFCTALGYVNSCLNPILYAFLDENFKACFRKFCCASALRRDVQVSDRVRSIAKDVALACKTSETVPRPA

CNC(C)C(=O)c1ccc2c(c1)OCO2 (stereo not drawn) [methylone]
% Agonist Activity (168 GPCRs [1]; Conc 1 uM): -1.6% | % Antagonist Activity (168 GPCRs [1]; Conc 1 uM): 17.1% | % Agonist Activity (168 GPCRs [1]; Conc 10 uM): -2.3% | % Antagonist Activity (168 GPCRs [1]; Conc 10 uM): 13.2% | % Agonist Activity (168 GPCRs [2]; 1 uM): 1.3% | % Antagonist Activity (168 GPCRs [2]; 1 uM): -6.7% | % Agonist Activity (168 GPCRs [2]; 10 uM): 2% | % Antagonist Activity (168 GPCRs [2]; 10 uM): -9.3% | % Agonist Activity (168 GPCRs [3]; Conc 1 uM): 0.8% | % Antagonist Activity (168 GPCRs [3]; Conc 1 uM): -3.9% | % Agonist Activity (168 GPCRs [3]; Conc 10 uM): 1.1% | % Antagonist Activity (168 GPCRs [3]; Conc 10 uM): -14.3% | % Agonist Activity (168 GPCRs [4]; Conc 1 uM): -0.6% | % Antagonist Activity (168 GPCRs [4]; Conc 1 uM): -1% | % Agonist Activity (168 GPCRs [4]; Conc 10 uM): -0.5% | % Antagonist Activity (168 GPCRs [4]; Conc 10 uM): -0.2% | % Agonist Activity (168 GPCRs [5]; Conc 1 uM): -0.6% | % Antagonist Activity (168 GPCRs [5]; Conc 1 uM): 2% | % Agonist Activity (168 GPCRs [5]; Conc 10 uM): -0.6% | % Antagonist Activity (168 GPCRs [5]; Conc 10 uM): -6.8% | % Agonist Activity (168 GPCRs [6]; GPR1, 1 uM): -0.5% | % Antagonist Activity (168 GPCRs [6]; GPR1, 1 uM): 4.4% | % Agonist Activity (168 GPCRs [6]; GPR1, 10 uM): -0.7% | % Antagonist Activity (168 GPCRs [6]; GPR1, 10 uM): 7.4% | Agonist activity at any of 168 GPCRs (168 GPCRs [7]; 1 or 10 μM, threshold 30% activity): no significant agonist activity | Antagonist activity at any GPCR (168 GPCRs [7]; 1 or 10 μM, threshold 50% inhibition): no significant antagonist activity | % Agonist Activity (168 GPCRs [7]; DRD2S, 1 uM): 0% | % Antagonist Activity (168 GPCRs [7]; DRD2S, 1 uM): 3.6% | % Agonist Activity (168 GPCRs [7]; DRD2S, 10 uM): 0.6% | % Antagonist Activity (168 GPCRs [7]; DRD2S, 10 uM): -11.6% | % Agonist Activity (168 GPCRs [7]; NPSR1B, Conc 1 uM): -1.3% | % Antagonist Activity (168 GPCRs [7]; NPSR1B, Conc 1 uM): -10.6% | % Agonist Activity (168 GPCRs [7]; NPSR1B, Conc 10 uM): 4.8% | % Antagonist Activity (168 GPCRs [7]; NPSR1B, Conc 10 uM): -7.6% | % Agonist Activity (168 GPCRs [8]; HRH4, 1 uM): 8.6% | % Antagonist Activity (168 GPCRs [8]; HRH4, 1 uM): -11.6% | % Agonist Activity (168 GPCRs [8]; HRH4, 10 uM): 9% | % Antagonist Activity (168 GPCRs [8]; HRH4, 10 uM): -14% | % Agonist Activity (168 GPCRs [9]; CNR1, 1 uM): -0.4% | % Antagonist Activity (168 GPCRs [9]; CNR1, 1 uM): -3.5% | % Agonist Activity (168 GPCRs [9]; CNR1, 10 uM): -2.7% | % Antagonist Activity (168 GPCRs [9]; CNR1, 10 uM): -17.1% | % Agonist Activity (168 GPCRs [10]; 1 uM): -1.4% | % Antagonist Activity (168 GPCRs [10]; 1 uM): -5.2% | % Agonist Activity (168 GPCRs [10]; 10 uM): -1.1% | % Antagonist Activity (168 GPCRs [10]; 10 uM): -14%

CNC(C)Cc1ccc2c(c1)OCO2 (stereo not drawn) [MDMA, 3,4-Methylenedioxy methamphetamine, reference compound]
% Agonist Activity (168 GPCRs [1]; Conc 1 uM): 0.5% | % Antagonist Activity (168 GPCRs [1]; Conc 1 uM): -6.7% | % Agonist Activity (168 GPCRs [1]; Conc 10 uM): -0.4% | % Antagonist Activity (168 GPCRs [1]; Conc 10 uM): -3.2% | % Agonist Activity (168 GPCRs [2]; 1 uM): 0% | % Antagonist Activity (168 GPCRs [2]; 1 uM): -3.7% | % Agonist Activity (168 GPCRs [2]; 10 uM): -0.1% | % Antagonist Activity (168 GPCRs [2]; 10 uM): 6.8% | % Agonist Activity (168 GPCRs [3]; Conc 1 uM): 0.1% | % Antagonist Activity (168 GPCRs [3]; Conc 1 uM): 14.6% | % Agonist Activity (168 GPCRs [3]; Conc 10 uM): 1% | % Antagonist Activity (168 GPCRs [3]; Conc 10 uM): 19.1% | % Agonist Activity (168 GPCRs [4]; Conc 1 uM): 0.2% | % Antagonist Activity (168 GPCRs [4]; Conc 1 uM): 2.9% | % Agonist Activity (168 GPCRs [4]; Conc 10 uM): 0.5% | % Antagonist Activity (168 GPCRs [4]; Conc 10 uM): 7% | % Agonist Activity (168 GPCRs [5]; Conc 1 uM): -0.6% | % Antagonist Activity (168 GPCRs [5]; Conc 1 uM): 14.4% | % Agonist Activity (168 GPCRs [5]; Conc 10 uM): -0.3% | % Antagonist Activity (168 GPCRs [5]; Conc 10 uM): 19.4% | % Agonist Activity (168 GPCRs [6]; GPR1, 1 uM): 0.7% | % Antagonist Activity (168 GPCRs [6]; GPR1, 1 uM): 7.6% | % Agonist Activity (168 GPCRs [6]; GPR1, 10 uM): 0.2% | % Antagonist Activity (168 GPCRs [6]; GPR1, 10 uM): 11.9% | % Agonist Activity (168 GPCRs [7]; DRD2S, 1 uM): 1.6% | % Antagonist Activity (168 GPCRs [7]; DRD2S, 1 uM): 5.8% | % Agonist Activity (168 GPCRs [7]; DRD2S, 10 uM): 1.9% | % Antagonist Activity (168 GPCRs [7]; DRD2S, 10 uM): 14.7% | % Agonist Activity (168 GPCRs [7]; NPSR1B, Conc 1 uM): -3.8% | % Antagonist Activity (168 GPCRs [7]; NPSR1B, Conc 1 uM): 4.3% | % Agonist Activity (168 GPCRs [7]; NPSR1B, Conc 10 uM): -5.1% | % Antagonist Activity (168 GPCRs [7]; NPSR1B, Conc 10 uM): 5% | % Agonist Activity (168 GPCRs [8]; HRH4, 1 uM): 1.9% | % Antagonist Activity (168 GPCRs [8]; HRH4, 1 uM): 14.5% | % Agonist Activity (168 GPCRs [8]; HRH4, 10 uM): 3.1% | % Antagonist Activity (168 GPCRs [8]; HRH4, 10 uM): 14.5% | % Agonist Activity (168 GPCRs [9]; CNR1, 1 uM): -0.5% | % Antagonist Activity (168 GPCRs [9]; CNR1, 1 uM): 7.8% | % Agonist Activity (168 GPCRs [9]; CNR1, 10 uM): 0.1% | % Antagonist Activity (168 GPCRs [9]; CNR1, 10 uM): 11.2% | % Agonist Activity (168 GPCRs [10]; 1 uM): 2.3% | % Antagonist Activity (168 GPCRs [10]; 1 uM): -14.5% | % Agonist Activity (168 GPCRs [10]; 10 uM): 0.7% | % Antagonist Activity (168 GPCRs [10]; 10 uM): -11.7%
